Results on eight compounds are retold here after ChEMBL document CHEMBL5252573, “2,3-Dihydrosorbicillin and chrysopanol stimulate insulin secretion in INS-1 cells” (Bioorg Med Chem Lett, 2023).

Each structure is given as a SMILES string. Active and inactive are the calls of the source. The rule behind the calls is not given here.

Series [1] can be described thus: Induction of glucose stimulated insulin secretion in rat INS1 cells assessed as increase in insulin level at 5 uM incubated for 1 hr. It is filed as functional.
A short description of series [2]: Induction of glucose stimulated insulin secretion in rat INS1 cells assessed as increase in insulin level at 10 uM incubated for 1 hr. Format: functional.
Series [3] concerns INS1. Kind of series: Upregulation of IRS-2 protein expression in rat INS1 cells at 10 uM incubated for 24 hrs by Western blot analysis. Format: functional, cell-based.
The subject of series [4] is INS1. The series can be described thus: Cytotoxicity against rat INS1 cells assessed as reduction in cell viability at 2.5 to 10 uM incubated for 24 hrs by MTT assay. To be noted: ins1, 24 h, dose 2.5-10 µM. Format: toxicity, cell-based. For orientation: Tetrazolium assays rely on reduction of a dye to a coloured formazan, in cell work by metabolically active cells.
Series [5] deals with INS1. Kind of series: Upregulation of PPARgamma protein expression in rat INS1 cells at 10 uM incubated for 24 hrs by Western blot analysis. It is filed as functional, cell-based.
Series [6] relates to INS1. Kind of series: Upregulation of AKT protein expression in rat INS1 cells at 10 uM incubated for 24 hrs by Western blot analysis. Format: functional, cell-based. (Immunoblotting shows a protein as a band on a membrane.)
Series [7] has as its system INS1. The series can be described thus: Upregulation of PI3K protein expression in rat INS1 cells at 10 uM incubated for 24 hrs by Western blot analysis. It is filed as functional, cell-based.
Series [8] relates to INS1. Kind of series: Upregulation of PDX-1 protein expression in rat INS1 cells at 10 uM incubated for 24 hrs by Western blot analysis. Format: functional, cell-based.
Series [9] concerns INS1. The series can be described thus: Upregulation of AKT protein expression in rat INS1 cells at 5 uM incubated for 24 hrs by Western blot analysis. It is filed as functional, cell-based.
The test system of series [10] is INS1. The series can be described thus: Upregulation of PPARgamma protein expression in rat INS1 cells at 5 uM incubated for 24 hrs by Western blot analysis. It is filed as functional, cell-based.
For series [11], the system named is INS1. The series can be described thus: Upregulation of PI3K protein expression in rat INS1 cells at 5 uM incubated for 24 hrs by Western blot analysis. Format: functional, cell-based.
In series [12] the test system is INS1. Kind of series: Upregulation of PDX-1 protein expression in rat INS1 cells at 5 uM incubated for 24 hrs by Western blot analysis. It is filed as functional, cell-based.
Series [13] is described as follows: Induction of glucose stimulated insulin secretion in rat INS1 cells assessed as increase in insulin level at 2.5 uM incubated for 1 hr. It is filed as functional.
Series [14] relates to INS1. Kind of series: Upregulation of IRS-2 protein expression in rat INS1 cells at 5 uM incubated for 24 hrs by Western blot analysis. It is filed as functional, cell-based.

Take `Cc1ccc(S(=O)(=O)NC(=O)NN2CC3CCCC3C2)cc1` (stereo unspecified) [GLICLAZIDE]: the Activity in series [1] is 9.69 ng/mL; in [2], 20.85 ng/mL.

Regarding `C/C=C/CCC(=O)c1cc(C)c(O)c(C)c1O`, the result in the series on INS1 [3], in the series with INS1 [5], with INS1 [6], in the series with INS1 [7] and with INS1 [8] was Active. In addition, the Activity result in the series with INS1 [4] was “Non-Toxic”; in series [1], 8.92 ng/mL; in series [2], 15.57 ng/mL.

`C=CC(C)(C)[C@@]12C=C(O)C(=O)N3/C(=C/c4cnc[nH]4)C(=O)N[C@]31N(OC)c1ccccc12`: in the series on INS1 [4], the Activity result is given as “Non-Toxic”.

For `C=CC(C)(C)[C@@]12C=C(O)C(=O)N3/C(=C/c4c[nH]cn4)C(=O)N[C@]31N(O)c1ccccc12`, the values for the Activity result (with INS1 [4]; in series [1]; in [2]) were “Non-Toxic”, 12.05 ng/mL and 12.86 ng/mL, respectively.

For the compound `Cc1cc(O)c2c(c1)C(=O)c1cccc(O)c1C2=O` [CHRYSOPHANOL], the result with INS1 [9], in the series on INS1 [10], in the series on INS1 [11], with INS1 [12] and with INS1 [14] was Active. In addition, the Activity result is “Non-Toxic” with INS1 [4], 20.01 ng/mL in series [1], 24.23 ng/mL in series [2] and 8.81 ng/mL in series [13].

Consider `COC(=O)[C@@]12Oc3ccc(-c4ccc5c(c4O)C(=O)C4=C(O)C[C@H](C)[C@@H](O)[C@]4(C(=O)OC)O5)c(O)c3C(=O)C1=C(O)C[C@H](C)[C@H]2O`, for which the Activity entry in the series on INS1 [4] is recorded as “Non-Toxic”.

Turning to `CC(O)c1nc2ccccc2c(=O)[nH]1` (stereo unspecified), the Activity entry in the series on INS1 [4] is listed as “Non-Toxic”.

`Cc1cc(O)c2c(c1)C(=O)c1cc(O)cc(O)c1C2=O` [EMODIN]: the Activity result in the series on INS1 [4] is on record as “Non-Toxic”.
